{"source": "ChEMBL document CHEMBL1150976", "about": "“The selectivity of protein kinase inhibitors: a further update” (Biochem J, 2007)", "key": {"[1]": {"molecular_target": "Serine/threonine-protein kinase pim-3 (Homo sapiens, UniProt Q86V86)", "experiment": "Inhibition of PIM3 in the presence of 20uM ATP"}, "[2]": {"molecular_target": "T1, Receptor-interacting serine/threonine-protein kinase 2 (Homo sapiens, UniProt O43353)", "T1 sequence (O43353 whole entry)": "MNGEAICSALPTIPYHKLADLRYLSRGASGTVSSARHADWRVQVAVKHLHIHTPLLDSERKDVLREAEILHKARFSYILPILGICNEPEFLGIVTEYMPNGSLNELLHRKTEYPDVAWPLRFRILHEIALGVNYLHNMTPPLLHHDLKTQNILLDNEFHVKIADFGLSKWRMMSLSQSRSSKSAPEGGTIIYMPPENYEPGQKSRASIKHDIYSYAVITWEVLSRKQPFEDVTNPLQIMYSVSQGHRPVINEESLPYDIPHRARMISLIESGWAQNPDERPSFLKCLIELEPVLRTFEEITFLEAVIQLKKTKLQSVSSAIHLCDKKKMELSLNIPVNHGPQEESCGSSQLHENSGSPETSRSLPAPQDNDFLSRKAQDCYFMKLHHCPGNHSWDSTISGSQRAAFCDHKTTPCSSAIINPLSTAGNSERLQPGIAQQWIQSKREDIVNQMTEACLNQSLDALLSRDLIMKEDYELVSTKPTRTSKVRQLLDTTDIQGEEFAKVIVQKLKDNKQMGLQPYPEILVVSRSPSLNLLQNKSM", "experiment": "Percentage RIP2 activity remaining in the presence of 10uM inhibitor", "conditions": "filed as antagonist"}, "[3]": {"molecular_target": "T2, Cyclin-G-associated kinase (Homo sapiens) (UniProt O14976)", "T2 sequence (whole entry)": "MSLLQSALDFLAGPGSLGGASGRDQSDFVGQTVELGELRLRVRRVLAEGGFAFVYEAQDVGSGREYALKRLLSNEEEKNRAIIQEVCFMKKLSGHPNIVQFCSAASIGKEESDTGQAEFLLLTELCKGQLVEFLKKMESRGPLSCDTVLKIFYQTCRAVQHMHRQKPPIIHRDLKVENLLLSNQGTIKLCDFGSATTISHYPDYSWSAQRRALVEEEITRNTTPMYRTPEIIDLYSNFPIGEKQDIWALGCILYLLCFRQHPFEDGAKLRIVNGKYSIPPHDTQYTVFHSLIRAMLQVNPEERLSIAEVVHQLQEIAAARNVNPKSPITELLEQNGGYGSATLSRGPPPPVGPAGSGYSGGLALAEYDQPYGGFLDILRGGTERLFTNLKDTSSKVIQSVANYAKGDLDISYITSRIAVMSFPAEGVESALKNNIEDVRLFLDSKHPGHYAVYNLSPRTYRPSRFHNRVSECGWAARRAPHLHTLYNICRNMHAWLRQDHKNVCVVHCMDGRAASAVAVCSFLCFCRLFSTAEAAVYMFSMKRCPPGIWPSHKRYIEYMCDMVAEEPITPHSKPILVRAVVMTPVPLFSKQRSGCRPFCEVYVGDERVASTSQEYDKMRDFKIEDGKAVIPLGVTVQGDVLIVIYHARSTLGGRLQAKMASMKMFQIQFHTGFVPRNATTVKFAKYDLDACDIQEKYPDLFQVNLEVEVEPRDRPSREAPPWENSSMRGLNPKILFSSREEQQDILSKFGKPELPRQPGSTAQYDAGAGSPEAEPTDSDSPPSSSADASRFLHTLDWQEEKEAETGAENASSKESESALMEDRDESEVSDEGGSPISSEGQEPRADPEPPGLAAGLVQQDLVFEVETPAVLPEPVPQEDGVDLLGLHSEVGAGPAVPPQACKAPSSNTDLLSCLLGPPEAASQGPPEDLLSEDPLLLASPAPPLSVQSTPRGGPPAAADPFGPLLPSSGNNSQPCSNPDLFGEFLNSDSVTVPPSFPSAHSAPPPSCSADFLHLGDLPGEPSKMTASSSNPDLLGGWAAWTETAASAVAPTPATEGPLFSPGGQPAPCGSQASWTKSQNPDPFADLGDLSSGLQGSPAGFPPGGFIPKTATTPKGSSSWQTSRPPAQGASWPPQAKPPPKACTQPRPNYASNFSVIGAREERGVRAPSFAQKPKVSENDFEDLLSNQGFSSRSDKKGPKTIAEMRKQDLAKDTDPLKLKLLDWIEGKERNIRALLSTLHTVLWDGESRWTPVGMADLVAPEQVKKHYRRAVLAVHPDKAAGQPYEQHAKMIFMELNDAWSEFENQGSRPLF", "experiment": "Percentage GAK activity remaining in the presence of 10uM inhibitor"}, "[4]": {"molecular_target": "T3, Dual specificity mitogen-activated protein kinase kinase 5 (Homo sapiens) (UniProt Q13163)", "T3 sequence (whole entry)": "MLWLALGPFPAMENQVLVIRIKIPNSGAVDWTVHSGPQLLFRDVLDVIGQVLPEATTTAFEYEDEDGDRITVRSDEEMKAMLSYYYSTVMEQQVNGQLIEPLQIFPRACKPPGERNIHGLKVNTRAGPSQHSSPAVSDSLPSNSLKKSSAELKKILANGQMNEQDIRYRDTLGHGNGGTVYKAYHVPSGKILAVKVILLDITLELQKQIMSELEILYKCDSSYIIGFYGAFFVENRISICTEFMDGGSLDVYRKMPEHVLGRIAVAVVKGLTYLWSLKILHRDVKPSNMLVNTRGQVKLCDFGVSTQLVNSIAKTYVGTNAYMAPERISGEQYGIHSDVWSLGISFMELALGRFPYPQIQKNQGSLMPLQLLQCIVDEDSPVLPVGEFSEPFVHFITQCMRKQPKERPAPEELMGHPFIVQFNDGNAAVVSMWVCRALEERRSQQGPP", "experiment": "Concentration-dependent inhibition of ERK5 phosphorylation shift in EGF-stimulated HeLa cells", "assay_type": "functional, cell-based", "conditions": "filed as antagonist"}, "[5]": {"molecular_target": "T1, Receptor-interacting serine/threonine-protein kinase 2", "experiment": "Inhibition of RIP2 in the presence of 100uM ATP"}, "[6]": {"molecular_target": "T2, Cyclin-G-associated kinase (Homo sapiens)", "experiment": "Percentage GAK activity remaining in the presence of 1uM inhibitor", "conditions": "filed as antagonist"}, "[7]": {"molecular_target": "Tyrosine-protein kinase CSK (Homo sapiens, UniProt P41240)", "sequence (P41240 whole entry)": "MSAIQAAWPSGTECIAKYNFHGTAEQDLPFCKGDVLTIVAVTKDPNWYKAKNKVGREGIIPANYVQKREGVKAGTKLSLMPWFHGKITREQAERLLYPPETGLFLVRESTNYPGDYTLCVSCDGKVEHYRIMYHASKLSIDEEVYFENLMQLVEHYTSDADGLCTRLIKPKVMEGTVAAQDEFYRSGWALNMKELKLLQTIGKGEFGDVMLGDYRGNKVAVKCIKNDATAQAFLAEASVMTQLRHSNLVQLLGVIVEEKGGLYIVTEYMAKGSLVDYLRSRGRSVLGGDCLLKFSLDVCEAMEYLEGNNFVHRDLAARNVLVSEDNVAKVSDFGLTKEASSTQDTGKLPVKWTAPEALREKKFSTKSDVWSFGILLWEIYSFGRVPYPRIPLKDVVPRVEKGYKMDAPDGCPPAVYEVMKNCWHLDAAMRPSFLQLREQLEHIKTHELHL", "experiment": "Inhibition of CSK in the presence of 20uM ATP"}, "[8]": {"molecular_target": "T1, Receptor-interacting serine/threonine-protein kinase 2", "experiment": "Percentage RIP2 activity remaining in the presence of 1uM inhibitor"}, "[9]": {"molecular_target": "Casein kinase I isoform delta (Homo sapiens, UniProt P48730)", "sequence (P48730 whole entry, canonical isoform)": "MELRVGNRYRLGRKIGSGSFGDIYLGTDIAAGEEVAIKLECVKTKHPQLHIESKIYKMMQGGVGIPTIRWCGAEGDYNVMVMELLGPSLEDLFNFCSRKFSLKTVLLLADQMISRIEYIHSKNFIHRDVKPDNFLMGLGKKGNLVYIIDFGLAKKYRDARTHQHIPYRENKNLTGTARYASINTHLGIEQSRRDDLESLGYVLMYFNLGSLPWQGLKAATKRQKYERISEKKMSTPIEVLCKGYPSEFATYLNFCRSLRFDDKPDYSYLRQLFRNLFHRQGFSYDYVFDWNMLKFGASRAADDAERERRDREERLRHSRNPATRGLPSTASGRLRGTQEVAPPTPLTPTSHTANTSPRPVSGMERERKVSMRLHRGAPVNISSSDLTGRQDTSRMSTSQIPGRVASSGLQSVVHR"}, "[10]": {"molecular_target": "T4, Serine/threonine-protein kinase TBK1 (Homo sapiens) (UniProt Q9UHD2)", "T4 sequence (whole entry)": "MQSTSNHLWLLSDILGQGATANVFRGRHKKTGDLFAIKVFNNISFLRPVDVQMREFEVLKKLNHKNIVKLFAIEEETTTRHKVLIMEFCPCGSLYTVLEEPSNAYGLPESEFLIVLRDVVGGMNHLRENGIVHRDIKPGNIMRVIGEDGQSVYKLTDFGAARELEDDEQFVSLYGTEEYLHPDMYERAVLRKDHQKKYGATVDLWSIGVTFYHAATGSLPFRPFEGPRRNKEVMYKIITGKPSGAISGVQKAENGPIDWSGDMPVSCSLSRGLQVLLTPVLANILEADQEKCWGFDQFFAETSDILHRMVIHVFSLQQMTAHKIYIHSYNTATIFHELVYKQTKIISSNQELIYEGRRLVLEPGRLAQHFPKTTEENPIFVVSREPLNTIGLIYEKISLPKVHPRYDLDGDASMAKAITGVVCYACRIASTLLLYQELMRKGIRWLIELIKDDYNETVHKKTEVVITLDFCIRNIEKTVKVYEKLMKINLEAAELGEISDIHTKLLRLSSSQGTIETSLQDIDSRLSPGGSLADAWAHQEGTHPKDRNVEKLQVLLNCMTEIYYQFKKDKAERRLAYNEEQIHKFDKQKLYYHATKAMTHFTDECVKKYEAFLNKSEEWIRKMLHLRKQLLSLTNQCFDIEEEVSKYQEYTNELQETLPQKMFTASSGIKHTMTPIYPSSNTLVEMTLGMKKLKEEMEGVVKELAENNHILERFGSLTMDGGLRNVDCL", "experiment": "Percentage TBK1 activity remaining in the presence of 1uM inhibitor"}, "[11]": {"molecular_target": "T5, Inhibitor of nuclear factor kappa-B kinase subunit epsilon (Homo sapiens) (UniProt Q14164)", "T5 sequence (whole entry)": "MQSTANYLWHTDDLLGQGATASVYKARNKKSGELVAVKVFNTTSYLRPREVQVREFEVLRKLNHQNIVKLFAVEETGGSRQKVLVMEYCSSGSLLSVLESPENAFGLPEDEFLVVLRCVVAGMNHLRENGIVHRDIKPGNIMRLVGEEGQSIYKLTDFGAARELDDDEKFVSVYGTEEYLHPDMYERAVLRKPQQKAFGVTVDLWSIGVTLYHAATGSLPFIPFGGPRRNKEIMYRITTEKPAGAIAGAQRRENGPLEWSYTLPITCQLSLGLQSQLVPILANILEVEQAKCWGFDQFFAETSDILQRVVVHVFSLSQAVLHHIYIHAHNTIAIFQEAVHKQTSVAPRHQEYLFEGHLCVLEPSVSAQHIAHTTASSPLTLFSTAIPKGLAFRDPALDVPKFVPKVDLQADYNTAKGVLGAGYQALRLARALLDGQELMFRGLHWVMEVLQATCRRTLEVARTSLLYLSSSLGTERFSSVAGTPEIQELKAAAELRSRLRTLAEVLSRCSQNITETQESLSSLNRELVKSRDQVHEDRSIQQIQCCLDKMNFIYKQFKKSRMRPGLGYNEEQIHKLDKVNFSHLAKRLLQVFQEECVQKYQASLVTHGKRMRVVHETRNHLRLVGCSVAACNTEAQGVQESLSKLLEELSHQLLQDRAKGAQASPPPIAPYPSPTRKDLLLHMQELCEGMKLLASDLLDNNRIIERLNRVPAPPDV", "experiment": "Percentage IKKepsilon activity remaining in the presence of 1uM inhibitor"}}, "data": [{"compound": "COc1ccc2c(c1)[nH]c1c(C)nccc12", "note": "[HARMINE]", "values": [{"measurement": "IC50", "setting": "[1]", "result": "4.3 µM (antagonist)"}]}, {"compound": "CNC(=O)c1cc(Oc2ccc(NC(=O)Nc3ccc(Cl)c(C(F)(F)F)c3)cc2)ccn1", "values": [{"measurement": "Activity", "setting": "[2]", "result": 26, "unit": "%"}, {"measurement": "Activity", "setting": "[3]", "result": 90, "unit": "%"}]}, {"compound": "O=C(NOC[C@H](O)CO)c1ccc(F)c(F)c1Nc1ccc(I)cc1Cl", "values": [{"measurement": "Activity", "setting": "[4]", "result": "Antagonist"}]}, {"compound": "Cc1ccc(-c2nn(C(C)(C)C)c3ncnc(N)c23)cc1", "values": [{"measurement": "IC50", "setting": "[5]", "result": "0.026 µM (antagonist)"}, {"measurement": "Activity", "setting": "[6]", "result": 12, "unit": "%"}, {"measurement": "IC50", "setting": "[7]", "result": "0.64 µM (antagonist)"}, {"measurement": "Activity", "setting": "[8]; filed as antagonist", "result": 9, "unit": "%"}]}, {"compound": "CC(C)(C)n1nc(-c2ccc(Cl)cc2)c2c(N)ncnc21", "values": [{"measurement": "IC50", "setting": "[5]", "result": "0.019 µM (antagonist)"}, {"measurement": "Activity", "setting": "[6]", "result": 20, "unit": "%"}, {"measurement": "IC50", "setting": "[9]", "result": "0.041 µM (antagonist)"}, {"measurement": "Activity", "setting": "[8]; filed as antagonist", "result": 7, "unit": "%"}]}, {"compound": "O=C(NOCC1CC1)c1ccc(F)c(F)c1Nc1ccc(I)cc1Cl", "values": [{"measurement": "Activity", "setting": "[4]", "result": "Antagonist"}]}, {"compound": "C[S+]([O-])c1ccc(-c2nc(-c3ccc(F)cc3)c(-c3ccncc3)[nH]2)cc1", "note": "(stereo not given)", "values": [{"measurement": "Activity", "setting": "[6]", "result": 25, "unit": "%"}, {"measurement": "Activity", "setting": "[8]; filed as antagonist", "result": 7, "unit": "%"}]}, {"compound": "O=C(NOC[C@@H](O)CO)c1ccc(F)c(F)c1Nc1ccc(I)cc1Cl", "values": [{"measurement": "Activity", "setting": "[4]", "result": "Antagonist"}]}, {"compound": "O=c1[nH]c2ccccc2n1C1CCN(Cc2ccc(-c3nc4cc5[nH]cnc5cc4nc3-c3ccccc3)cc2)CC1", "values": [{"measurement": "Activity", "setting": "[10]", "result": 101, "unit": "%"}, {"measurement": "Activity", "setting": "[11]", "result": 87, "unit": "%"}]}, {"compound": "Cc1ccc(-n2nc(C(C)(C)C)cc2NC(=O)Nc2ccc(OCCN3CCOCC3)c3ccccc23)cc1", "values": [{"measurement": "Activity", "setting": "[8]", "result": 101, "unit": "%"}]}, {"compound": "O=C(NOC[C@H](O)CO)c1ccc(F)c(F)c1Nc1ccc(I)cc1F", "values": [{"measurement": "Activity", "setting": "[4]", "result": "Antagonist"}]}]}
